Test results published in ChEMBL document CHEMBL4411303, “Synthesis of tetrazole derivatives bearing pyrrolidine scaffold and evaluation of their antifungal activity against Candida albicans” (Eur J Med Chem, 2019).

Assays:
Format in all cases: functional
Candida albicans [1] = test: Antifungal activity against Candida albicans ATCC 90028 assessed as planktonic growth inhibition at 0.08 uM after 48 hrs by M27-A3 protocol based method relative to control; details: ATCC 90028, 48 h, read-out: GI
Candida albicans [2] = test: Antifungal activity against Candida albicans ATCC 90028 assessed as planktonic growth inhibition at 1.31 uM after 48 hrs by M27-A3 protocol based method relative to control; details: ATCC 90028, 48 h, read-out: GI
Candida albicans [3] = test: Antifungal activity against Candida albicans ATCC 90028 assessed as planktonic growth inhibition at 0.16 uM after 48 hrs by M27-A3 protocol based method relative to control; details: ATCC 90028, 48 h, read-out: GI
Candida albicans [4] = test: Antifungal activity against Candida albicans ATCC 90028 assessed as planktonic growth inhibition at 2.62 uM after 48 hrs by M27-A3 protocol based method relative to control; details: ATCC 90028, 48 h, read-out: GI
Candida albicans [5] = test: Antifungal activity against Candida albicans ATCC 90028 assessed as planktonic growth inhibition at 20.95 uM after 48 hrs by M27-A3 protocol based method relative to control; details: ATCC 90028, 48 h, read-out: GI
Candida albicans [6] = test: Antifungal activity against Candida albicans ATCC 90028 assessed as planktonic growth inhibition at 10.47 uM after 48 hrs by M27-A3 protocol based method relative to control; details: ATCC 90028, 48 h, read-out: GI
Candida albicans [7] = test: Antifungal activity against Candida albicans ATCC 90028 assessed as planktonic growth inhibition at 0.65 uM after 48 hrs by M27-A3 protocol based method relative to control; details: ATCC 90028, 48 h, read-out: GI
Candida albicans [8] = test: Antifungal activity against Candida albicans ATCC 90028 assessed as planktonic growth inhibition at 0.33 uM after 48 hrs by M27-A3 protocol based method relative to control; details: ATCC 90028, 48 h, read-out: GI
Candida albicans [9] = test: Antifungal activity against Candida albicans ATCC 90028 assessed as planktonic growth inhibition at 5.24 uM after 48 hrs by M27-A3 protocol based method relative to control; details: ATCC 90028, 48 h, read-out: GI
Candida albicans [10] = test: Fungicidal activity against Candida albicans ATCC 90028 assessed as log reduction in fungal load incubated for 48 hrs followed by replating on sabouraud dextrose agar plate and measured after 48 hrs
Candida albicans [11] = test: Antifungal activity against Candida albicans ATCC 90028 assessed as planktonic growth inhibition at 41.9 uM after 48 hrs by M27-A3 protocol based method relative to control; details: ATCC 90028, 48 h, read-out: GI
Candida albicans [12] = test: Antifungal activity against Candida albicans ATCC 90028 assessed as planktonic growth inhibition at 0.34 uM after 48 hrs by M27-A3 protocol based method relative to control; details: ATCC 90028, 48 h, read-out: GI
Candida albicans [13] = test: Antifungal activity against Candida albicans ATCC 90028 assessed as planktonic growth inhibition at 2.72 uM after 48 hrs by M27-A3 protocol based method relative to control; details: ATCC 90028, 48 h, read-out: GI
Candida albicans [14] = test: Antifungal activity against Candida albicans ATCC 90028 assessed as planktonic growth inhibition at 0.17 uM after 48 hrs by M27-A3 protocol based method relative to control; details: ATCC 90028, 48 h, read-out: GI
Candida albicans [15] = test: Antifungal activity against Candida albicans ATCC 90028 assessed as planktonic growth inhibition at 10.87 uM after 48 hrs by M27-A3 protocol based method relative to control; details: ATCC 90028, 48 h, read-out: GI
Candida albicans [16] = test: Antifungal activity against Candida albicans ATCC 90028 assessed as planktonic growth inhibition at 21.75 uM after 48 hrs by M27-A3 protocol based method relative to control; details: ATCC 90028, 48 h, read-out: GI
Candida albicans [17] = test: Antifungal activity against Candida albicans ATCC 90028 assessed as planktonic growth inhibition at 1.36 uM after 48 hrs by M27-A3 protocol based method relative to control; details: ATCC 90028, 48 h, read-out: GI
Candida albicans [18] = test: Antifungal activity against Candida albicans ATCC 90028 assessed as planktonic growth inhibition at 5.44 uM after 48 hrs by M27-A3 protocol based method relative to control; details: ATCC 90028, 48 h, read-out: GI
Candida albicans [19] = test: Antifungal activity against Candida albicans ATCC 90028 assessed as planktonic growth inhibition at 0.68 uM after 48 hrs by M27-A3 protocol based method relative to control; details: ATCC 90028, 48 h, read-out: GI
Candida albicans [20] = test: Antifungal activity against Candida albicans ATCC 90028 assessed as planktonic growth inhibition at 43.49 uM after 48 hrs by M27-A3 protocol based method relative to control; details: ATCC 90028, 48 h, read-out: GI
Candida albicans [21] = test: Antifungal activity against Candida albicans ATCC 90028 assessed as planktonic growth inhibition at 0.31 uM after 48 hrs by M27-A3 protocol based method relative to control; details: ATCC 90028, 48 h, read-out: GI
Candida albicans [22] = test: Antifungal activity against Candida albicans ATCC 90028 assessed as planktonic growth inhibition at 2.49 uM after 48 hrs by M27-A3 protocol based method relative to control; details: ATCC 90028, 48 h, read-out: GI
Candida albicans [23] = test: Antifungal activity against Candida albicans ATCC 90028 assessed as planktonic growth inhibition at 0.62 uM after 48 hrs by M27-A3 protocol based method relative to control; details: ATCC 90028, 48 h, read-out: GI
Candida albicans [24] = test: Antifungal activity against Candida albicans ATCC 90028 assessed as planktonic growth inhibition at 1.24 uM after 48 hrs by M27-A3 protocol based method relative to control; details: ATCC 90028, 48 h, read-out: GI
Candida albicans [25] = test: Antifungal activity against Candida albicans ATCC 90028 assessed as planktonic growth inhibition at 39.77 uM after 48 hrs by M27-A3 protocol based method relative to control; details: ATCC 90028, 48 h, read-out: GI
Candida albicans [26] = test: Antifungal activity against Candida albicans ATCC 90028 assessed as planktonic growth inhibition at 9.94 uM after 48 hrs by M27-A3 protocol based method relative to control; details: ATCC 90028, 48 h, read-out: GI
Candida albicans [27] = test: Antifungal activity against Candida albicans ATCC 90028 assessed as planktonic growth inhibition at 19.88 uM after 48 hrs by M27-A3 protocol based method relative to control; details: ATCC 90028, 48 h, read-out: GI
Candida albicans [28] = test: Antifungal activity against Candida albicans ATCC 90028 assessed as planktonic growth inhibition at 4.97 uM after 48 hrs by M27-A3 protocol based method relative to control; details: ATCC 90028, 48 h, read-out: GI

Compound	inhibition of growth at 0.08 µM (Candida albicans [1])	inhibition of growth at 1.31 µM (Candida albicans [2])	inhibition of growth at 0.16 µM (Candida albicans [3])	inhibition of growth at 2.62 µM (Candida albicans [4])	inhibition of growth at 20.95 µM (Candida albicans [5])	inhibition of growth at 10.47 µM (Candida albicans [6])	inhibition of growth at 0.65 µM (Candida albicans [7])	inhibition of growth at 0.33 µM (Candida albicans [8])	inhibition of growth at 5.24 µM (Candida albicans [9])	log(activity) (Candida albicans [10])	inhibition of growth at 41.9 µM (Candida albicans [11])	inhibition of growth at 0.34 µM (Candida albicans [12])	inhibition of growth at 2.72 µM (Candida albicans [13])	inhibition of growth at 0.17 µM (Candida albicans [14])	inhibition of growth at 10.87 µM (Candida albicans [15])	inhibition of growth at 21.75 µM (Candida albicans [16])	inhibition of growth at 1.36 µM (Candida albicans [17])	inhibition of growth at 5.44 µM (Candida albicans [18])	inhibition of growth at 0.68 µM (Candida albicans [19])	inhibition of growth at 43.49 µM (Candida albicans [20])	further results
Cc1cccc(C2CCCN2CCCn2nnc(-c3ccc(Cl)cc3)n2)c1 (stereo unspecified)	99.3%	99.3%	99.3%	99.3%	98.8%	98.9%	99.3%	99.3%	99.3%	-0.4	98.9%										
Clc1ccc(C2CCCN2CCCn2nnc(-c3ccccc3)n2)cc1 (stereo unspecified)	99.4%									-1.4		99.4%	99.2%	99.3%	99.2%	99.4%	99.4%	99.3%	99.4%	99.6%	
Cc1cccc(C2CCCN2CCCn2nnc(-c3ccccc3Cl)n2)c1 (stereo unspecified)	99.1%	99.2%	99.1%	99.3%	99.7%	99.6%	99.2%	99.2%	99.4%	-0.5	99.8%										
Cc1ccc(C2CCCN2CCCn2nnc(-c3ccccc3Cl)n2)cc1 (stereo unspecified)	98.8%	99.2%	98.9%	99.3%	99.5%	99.5%	99.2%	99.2%	99.4%	-0.2	99.6%										
Clc1ccccc1-c1nnn(CCCN2CCCC2c2ccccc2)n1 (stereo unspecified)	98.8%									-0.3		99%	99.1%	98.9%	99.2%	99.4%	99.1%	99.1%	99%	99.5%	
Clc1ccc(C2CCCN2CCCn2nnc(-c3ccccc3Cl)n2)cc1 (stereo unspecified)	98.8%		98.9%							-0.4											inhibition of growth at 0.31 µM (Candida albicans [21]): 99%; inhibition of growth at 2.49 µM (Candida albicans [22]): 99.3%; inhibition of growth at 0.62 µM (Candida albicans [23]): 99.2%; inhibition of growth at 1.24 µM (Candida albicans [24]): 99.2%; inhibition of growth at 39.77 µM (Candida albicans [25]): 99.6%; inhibition of growth at 9.94 µM (Candida albicans [26]): 99.4%; inhibition of growth at 19.88 µM (Candida albicans [27]): 99.5%; inhibition of growth at 4.97 µM (Candida albicans [28]): 99.3%
